Measured values: US3983239A, “Hexahydro-γ-carboline derivatives and their salts” (priority 1974, dated 1976)
“Also recorded” adds a separate entry of the source. Like-named read-outs stand apart in the source and are kept apart here.

Experiments:
[1] = test system: electroencephalogram (EEG); test: Activation of the electroencephalogram (EEG); assay type: in vivo; conditions: 5 mg/kg i.v., gallamine immobilized cats
[2] = test system: locomotion; test: Inhibiting activity of locomotion, rats (Open-field method); assay type: in vivo; conditions: Rattus norvegicus, rats, read-out: ED50 value, inhibiting activity of locomotion
Excerpt: 3) Open-field method [C.S. Hall; J. Comp. Physiol. Psychol.

[3] = Acute toxicity, rats; conditions: rat, in vivo, male, observed 7 days
Excerpt: (§1) Male and female STD-dd Y mice, weighing 20 to 22 g (each group: 10 mice) and male Wistar HLA rats, weighing 250 to 300 g (each group: 10 to 20 rats) were used.

[4] = test system: muscle relaxant activity; test: Muscle relaxant activity, rats; assay type: in vivo; conditions: Rattus norvegicus, rats, read-out: ED50 value, muscle relaxant activity
[5] = test system: central nervous system; test: Depression of the central nervous system (overall); conditions: in vivo
Excerpt: 2. Depression of the central nervous system The compounds of the present invention show the same central nervous system depressing pattern as the existing neuroleptics, such as an inhibiting activity of locomotion, an inhibiting activity of conditioned avoidance response, a cataleptogenic activity, a muscle relaxant activity, an inhibiting activity of self-stimulation, and an anti-methamphetamine activity in terms of locomotor activity.

[6] = test system: conditioned avoidance response; test: Inhibiting activity of conditioned avoidance response, mice; assay type: in vivo; conditions: Mus musculus, po; mice, p.o.; read-out: ED50 value, inhibiting activity of conditioned avoidance response
[7] = test system: apomorphine-induced gnawing; test: Enhancement of apomorphine-induced gnawing; assay type: in vivo; conditions: 0.03-0.7 mg/kg s.c., rats
[8] = test system: homovanillic acid (HVA) in brain; test: Effect on homovanillic acid (HVA) in brain; assay type: in vivo, male Wistar rats; conditions: Rattus norvegicus, read-out: dose that remarkably increased the HVA in the brain
Method: 3. Effect on homovanillic acid (HVA for short) in brain
This test was carried out by a modified method of T. Karasawa et al. [Life Sci., Vol. 15, page 1465 (1974)].
To male Wistar rats, weighing 160 to 200 g (each group: 5 rats), was administered 8-methyl-2-[γ-(p-fluorobenzoyl)propyl]-2,3,4,4a,5,9b-hexahydro-1H-pyrido[4,3-b]indole dihydrochloride (Compound A) intraperitoneally or orally. After 90 minutes in case of the intraperitoneal administration, or after 6 hours in case of the oral administration, the test animals were decapitated, and then the HVA in the brain was measured by a fluorometric method.

[9] = test system: self-stimulation; test: Inhibiting activity of self-stimulation, rats; assay type: in vivo; conditions: Rattus norvegicus, po; rats, p.o.; read-out: ED50 value, inhibiting activity of self-stimulation
Excerpt: 8) J. Olds et al; J. Comp. Physiol. Psychol., Vol. 47, page

[10] = test system: locomotion; test: Inhibiting activity of locomotion, mice (Animex method); assay type: in vivo; conditions: Mus musculus, po; mice, p.o.; read-out: ED50 value, inhibiting activity of locomotion
[11] = Acute toxicity, mice; conditions: mouse, in vivo, observed 7 days
Excerpt: as §1

[12] = test system: methamphetamine-induced stereotypy; test: Potentiation of methamphetamine-induced stereotypy; assay type: in vivo, male Wistar HLA rats; design: key: ---: Marked antagonism; --: Moderate antagonism; -: Slight antagonism; 0: No interaction; +: Slight potentiation; ++: Moderate potentiation; +++: Marked potentiation; conditions: methamphetamine 2 mg/kg i.p.
Method: 1. Potentiation of methamphetamine-induced stereotypy
This test was carried out by a modified method of R. T. Naylor (Life Sci., Vol. 10, page 909, 1971).
To male Wistar HLA rats, weighing 200 to 250 g (each group: 6 rats), were intraperitoneally administered the compounds to be tested. After 20 minutes, methamphetamine (2 mg/kg) was intraperitoneally administered to the test animals, and then the appeared stereotypy was observed. The effects of the test compounds were evaluated by the intensity of the stereotypy and the termination thereof.

[13] = test system: catalepsy; test: Cataleptogenic activity, rats; assay type: in vivo; conditions: Rattus norvegicus, po; rats, p.o.; read-out: ED50 value, cataleptogenic activity
[14] = test system: conditioned avoidance response; test: Inhibiting activity of conditioned avoidance response, rats (Shuttle box method); assay type: in vivo; conditions: Rattus norvegicus, po; rats, p.o.; read-out: ED50 value, inhibiting activity of conditioned avoidance response
[15] = cited from earlier work
[16] = test system: amphetamine; conditions: in vivo; cited from earlier work

| Structure (SMILES) | ED50 ([2]; ip, i.p.) | ED50 ([2]; po, p.o.) | ED50 ([4]; ip, i.p.) | ED50 ([4]; po, p.o.) | ED50 [6] | ED50 [9] | ED50 [10] | LD50 at 168 h ([11]; ip, male) | LD50 at 168 h ([11]; iv, male) | LD50 at 168 h ([11]; po, male) | LD50 at 168 h ([11]; sc, male) | Stereotypy Intensity ([12]; 1.0 mg/kg i.p.) | Stereotypy Termination ([12]; 1.0 mg/kg i.p.) | Stereotypy Intensity ([12]; 2.0 mg/kg i.p.) | Stereotypy Termination ([12]; 2.0 mg/kg i.p.) | Stereotypy Intensity ([12]; 5.0 mg/kg i.p.) | Stereotypy Termination ([12]; 5.0 mg/kg i.p.) | Stereotypy Intensity ([12]; 10.0 mg/kg i.p.) | Stereotypy Termination ([12]; 10.0 mg/kg i.p.) | ED50 [13] | further results |
| --- | --- | --- | --- | --- | --- | --- | --- | --- | --- | --- | --- | --- | --- | --- | --- | --- | --- | --- | --- | --- | --- |
| Cc1ccc2c(c1)C1CN(CCCC(=O)c3ccc(F)cc3)CCC1N2.Cl.Cl (stereo not drawn) [Compound A, 8-Methyl-2-[γ-(p-fluorobenzoyl)propyl]-2,3,4,4a,5,9b-hexahydro-1H-pyrido[4,3-b]indole dihydrochloride] | 2.8 mg/kg | 33.2 mg/kg | 3.16 mg/kg | 11.2 mg/kg | 10 mg/kg | 61.8 mg/kg | 9.3 mg/kg | 134 mg/kg | 59 mg/kg | 589 mg/kg | 373 mg/kg | 0 | 0 | ++ | ++ | +++ | +++ | +++ | +++ | 34 mg/kg | spontaneous EEG, arousal time in the hippocampus [1]: prolongation of arousal time in the hippocampus; spontaneous EEG, cortex [1]: low-voltage high frequency in the cortex; LD50 at 168 h ([3]; ip): 146 mg/kg; LD50 at 168 h ([3]; iv): 51 mg/kg; LD50 at 168 h ([3]; po): 812 mg/kg; LD50 at 168 h ([3]; sc): 592 mg/kg; central nervous system depressing activities (in words) ([5]; dihydrochloride): somewhat inferior to those of chlorpromazine; also recorded: almost comparable to those of clozapine; also recorded: far superior to those of dicarbine; incidence of gnawing after apomorphine [7]: increased the incidence of gnawing; minimal effective dose ([8]; ip, 1.5 h, i.p., 90 minutes after administration): ≥ 5 mg/kg; minimal effective dose ([8]; po, 6 hours after administration): ≥ 13 mg/kg; LD50 at 168 h ([11]; ip, female): 95 mg/kg; LD50 at 168 h ([11]; po, female): 339 mg/kg; ED50 [14]: 23.8 mg/kg |
| Cc1ccc2c(c1)C1CN(C)CCC1N2 (stereo not drawn) [Dicarbine, 2,8-dimethyl-2,3,4,4a,5,9b-hexahydro-1H-pyrido[4,3-b]indole] | 28.7 mg/kg | > 200 mg/kg | 60.3 mg/kg | > 100 mg/kg | 119 mg/kg | > 100 mg/kg | 150 mg/kg | 153 mg/kg | 79 mg/kg | 357 mg/kg | 237 mg/kg | 0 | 0 | + | ++ | ++ | +++ | +++ | +++ | > 100 mg/kg | activity in clinical trials [15]: antipsychotic activity and a thymoleptic activity; central nervous system depressing activities (in words) [5]: far weak in comparison with those of the present compounds; activity against amphetamine [16]: antagonism against amphetamine and also an activity of potentiating the amphetamine-induced stereotypy; ED50 [14]: > 100 mg/kg |
